{"source": "ChEMBL document CHEMBL1128686", "about": "“Technetium-99m-labeled HOE 140: a potential bradykinin B2 receptor imaging agent” (J Med Chem, 1995)", "molecular_target": "T1, B2 bradykinin receptor (Cavia porcellus, UniProt O70526)", "T1 sequence (O70526 whole entry)": "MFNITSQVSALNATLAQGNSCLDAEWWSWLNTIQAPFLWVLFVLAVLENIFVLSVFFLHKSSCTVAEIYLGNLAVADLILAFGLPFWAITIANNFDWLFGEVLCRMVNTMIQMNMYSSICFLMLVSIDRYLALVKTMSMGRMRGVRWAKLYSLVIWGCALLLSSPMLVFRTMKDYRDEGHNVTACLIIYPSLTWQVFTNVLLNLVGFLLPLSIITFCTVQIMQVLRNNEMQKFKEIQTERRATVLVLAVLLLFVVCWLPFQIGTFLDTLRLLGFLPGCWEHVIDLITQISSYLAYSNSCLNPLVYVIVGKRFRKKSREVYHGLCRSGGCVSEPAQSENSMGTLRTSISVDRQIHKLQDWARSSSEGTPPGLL", "experiment": "In vitro antagonistic activity for Bradykinin receptor B2 by guinea pig ileal membrane receptor assay.", "assay_type": "functional", "data": [{"compound": "NC(N)=NCCC[C@@H](N)C(=O)N[C@@H](CCCN=C(N)N)C(=O)N1CCC[C@H]1C(=O)N1C[C@H](O)C[C@H]1C(=O)NCC(=O)N[C@@H](Cc1cccs1)C(=O)N[C@@H](CO)C(=O)N1Cc2ccccc2C[C@@H]1C(=O)N1[C@H](C(=O)N[C@@H](CCCN=C(N)N)C(=O)O)C[C@@H]2CCCC[C@@H]21", "note": "[ICATIBANT]", "values": [{"measurement": "IC50", "value": 1.07, "unit": "nM"}]}]}
